Assay results from patent US20110230477A1, “COMPOUNDS, PHARMACEUTICAL COMPOSITION AND METHODS FOR USE IN TREATING METABOLIC DISORDERS” (Euroscreen S.A., priority 2008, published 2011).

target: T1, human GPR43 receptor (hGPR43) (Homo sapiens, UniProt O15552); assay: GTPγS binding assay (SPA method); format: biochemical; conditions: membranes expressing hGPR43; assay performed in the presence of SCFA; read-out: EC50 (nM) in GTPγ35S assay
T1 construct: expressed in transfected cells
T1 sequence (O15552 1-330): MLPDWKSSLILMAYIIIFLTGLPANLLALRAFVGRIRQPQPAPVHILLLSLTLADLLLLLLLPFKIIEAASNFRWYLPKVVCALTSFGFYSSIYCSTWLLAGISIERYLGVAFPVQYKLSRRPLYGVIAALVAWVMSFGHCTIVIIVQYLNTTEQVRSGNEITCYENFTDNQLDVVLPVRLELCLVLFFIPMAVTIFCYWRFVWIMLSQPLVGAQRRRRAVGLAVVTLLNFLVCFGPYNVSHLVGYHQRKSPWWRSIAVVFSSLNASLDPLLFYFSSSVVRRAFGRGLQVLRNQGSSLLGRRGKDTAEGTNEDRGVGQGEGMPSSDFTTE
Text: The following assay can be used for determination of GPR43 activation. When a GPCR is in its active state, either as a result of ligand binding or constitutive activation, the receptor couples to a G protein and stimulates the release of GDP and subsequent binding of GTP to the G protein. The alpha subunit of the G protein-receptor complex acts as a GTPase and slowly hydrolyses the GTP to GDP, at which point the receptor normally is deactivated. Activated receptors continue to exchange GDP for GTP. […] The assay uses the ability of GPCR to stimulate [^35S]GTPγS binding to membranes expressing the relevant receptors. The assay can, therefore, be used in the direct identification method to screen candidate compounds to endogenous or not endogenous GPCR.
Membrane extracts were prepared from cells expressing the human GPR43 receptor (hGPR43) as follows: the medium was aspirated and the cells were scraped from the plates in Ca^++ and Mg^++-free Phosphate-buffered saline (PBS). The cells were then centrifuged for 3 min at 1500 g and the pellets were resuspended in buffer A (15 mM Tris-HCl pH 7.5, 2 mM MgCl2, 0.3 mM EDTA, 1 mM EGTA) and homogenized in a glass homogenizer. […] Protein content was assayed by the Folin method.
The assay was performed in the presence of SCFA, and was used to determine the activity of the compounds of the invention.
The [^35S]GTPγS assay was incubated in 20 mM HEPES pH7.4, 100 mM NaCl, 10 μg/ml saponin, 30 mM of MgCl2, 10 μM of GDP, 5 μg membrane-expressing hGPR43, 250 μg of wheatgerm agglutinin beads (Amersham, ref: RPNQ001), a range concentration of compounds (from 30 μM to 1 nM) in a final volume of 100 μl for 30 min at room temperature. The SCFA propionate was used at 1 mM final concentration as positive control. The plates were then centrifuged for 10 minutes at 2000 rpm, incubated for 2 hours at room temperature and counted for 1 min in a scintillation counter (TopCount, PerkinElmer).

Compared with `CN(C(=O)[C@@H](CC(=O)O)Cc1ccccc1)c1nc(-c2cccc(OC(F)F)c2)cs1` [Compound 164, (R)-3-benzyl-4-((4-(3-(difluoromethoxy)phenyl)thiazol-2-yl)(methyl)amino)-4-oxobutanoic acid], `CN(C(=O)[C@@H](CC(=O)O)Cc1ccccc1)c1nc(-c2ccccc2C#N)cs1` [Compound 91, (R)-3-benzyl-4-((4-(2-cyanophenyl)thiazol-2-yl)(methyl)amino)-4-oxobutanoic acid] is 2.2-fold higher in EC50: 161 nM for the first, 354 nM for the second.

Going from `CN(C(=O)[C@@H](CC(=O)O)CC1CCOCC1)c1nc(-c2cc(Cl)ccc2Cl)cs1` [Compound 168, (R)-4-((4-(2,5-dichlorophenyl)thiazol-2-yl)(methyl)amino)-4-oxo-3-((tetrahydro-2H-pyran-4-yl)methyl)butanoic acid] to `O=C(O)C[C@@H](CC1CCCC1)C(=O)N(c1nc(-c2cc(Cl)ccc2Cl)cs1)C1CC1` [Compound 166, (R)-3-(cyclopentylmethyl)-4-(cyclopropyl(4-(2,5-dichlorophenyl)thiazol-2-yl)amino)-4-oxobutanoic acid], the EC50 falls from 43 nM to 13 nM (3.3-fold).

Going from `COc1ccc(-c2ccccc2-c2csc(N(C)C(=O)[C@@H](CC(=O)O)Cc3ccccc3)n2)cn1` [Compound 116, (R)-3-benzyl-4-((4-(2-(6-methoxypyridin-3-yl)phenyl)thiazol-2-yl)(methyl)amino)-4-oxobutanoic acid] to `CN(C)c1ccc(-c2ccccc2-c2csc(N(C)C(=O)[C@@H](CC(=O)O)Cc3ccccc3)n2)cn1` [Compound 115, (R)-3-benzyl-4-((4-(2-(6-(dimethylamino)pyridin-3-yl)phenyl)thiazol-2-yl)(methyl)amino)-4-oxobutanoic acid], the EC50 falls from 175 nM to 72 nM (2.4-fold). The second is the more potent here.

`CN1CCOc2cc(-c3ccccc3-c3csc(N(C(=O)[C@@H](CC(=O)O)CC4CCCC4)C4CC4)n3)cnc21` [Compound 194, (R)-3-(cyclopentylmethyl)-4-(cyclopropyl(4-(2-(4-methyl-3,4-dihydro-2H-pyrido[3,2-b][1,4]oxazin-7-yl)phenyl)thiazol-2-yl)amino)-4-oxobutanoic acid] and `COc1ncc(-c2ccccc2-c2csc(N(C(=O)[C@@H](CC(=O)O)CC3CCCC3)C3CC3)n2)cc1F` [Compound 220, (R)-3-(cyclopentylmethyl)-4-(cyclopropyl(4-(2-(5-fluoro-6-methoxypyridin-3-yl)phenyl)thiazol-2-yl)amino)-4-oxobutanoic acid] are within 1.5-fold of each other in EC50: 30 nM for the first, 27 nM for the second.

Going from `COc1ncc(-c2ccc(Cl)cc2-c2csc(N(C(=O)[C@@H](CC(=O)O)CC3CCCC3)C3CC3)n2)cc1Cl` [Compound 223, (R)-4-((4-(5-chloro-2-(5-chloro-6-methoxypyridin-3-yl)phenyl)thiazol-2-yl)(cyclopropyl)amino)-3-(cyclopentylmethyl)-4-oxobutanoic acid] to `CN(C(=O)[C@@H](CC(=O)O)Cc1ccccc1)c1nc(-c2cc(Cl)cc(Cl)c2Cl)cs1` [Compound 175, (R)-3-benzyl-4-(methyl(4-(2,3,5-trichlorophenyl)thiazol-2-yl)amino)-4-oxobutanoic acid], the EC50 falls from 87 nM to 57 nM (1.5-fold).

First: CN(C(=O)[C@@H](CC(=O)O)Cc1ccccc1)c1nc(-c2ccccc2-c2ccc(Cl)cc2)cs1 [Compound 149, (R)-3-benzyl-4-((4-(4′-chloro-[1,1′-biphenyl]-2-yl)thiazol-2-yl)(methyl)amino)-4-oxobutanoic acid]
Second: CN(C(=O)[C@@H](CC(=O)O)Cc1ccccc1)c1nc(-c2ccccc2-c2ccccc2)cs1 [Compound 111, (R)-4-((4-([1,1′-biphenyl]-2-yl)thiazol-2-yl)(methyl)amino)-3-benzyl-4-oxobutanoic acid]
The EC50 of the first is 1.7-fold lower: 225 nM for the first, 393 nM for the second. The first is the more potent here.

Going from `CN(C(=O)[C@@H](CC(=O)O)Cc1ccccc1)c1nc(-c2ccccc2-c2cnc3c(ccn3C)c2)cs1` [Compound 217, (R)-3-benzyl-4-(methyl(4-(2-(1-methyl-1H-pyrrolo[2,3-b]pyridin-5-yl)phenyl)thiazol-2-yl)amino)-4-oxobutanoic acid] to `CN(C(=O)[C@@H](CC(=O)O)Cc1ccccc1)c1nc(-c2ccccc2-c2ccc(N3CCOCC3)cc2)cs1` [Compound 132, (R)-4-(2′-(2-(2-benzyl-3-carboxy-N-methylpropanamido)thiazol-4-yl)-[1,1′-biphenyl]-4-yl)morpholin-4-ium 2,2,2-trifluoroacetate], the EC50 rises from 126 nM to 276 nM (2.2-fold).

Going from `O=C(O)C[C@@H](Cc1ccccc1)C(=O)Nc1nc(-c2cc(Cl)sc2Cl)cs1` [Compound 112, (R)-3-benzyl-4-(4-(2,5-dichlorothiophen-3-yl)thiazol-2-ylamino)-4-oxobutanoic acid] to `O=C(O)C[C@@H](Cc1ccccc1)C(=O)Nc1nc(-c2cc(Cl)ccc2Cl)cs1` [Compound 123, (R)-3-benzyl-4-((4-(2,5-dichlorophenyl)thiazol-2-yl)amino)-4-oxobutanoic acid], the EC50 falls from 538 nM to 134 nM (4-fold).

First: CN(C(=O)[C@@H](CC(=O)O)Cc1ccccc1)c1nc(-c2ccccc2C2CC2)cs1 [Compound 144, (R)-3-benzyl-4-((4-(2-cyclopropylphenyl)thiazol-2-yl)(methyl)amino)-4-oxobutanoic acid]
Second: CN(C(=O)[C@@H](CC(=O)O)Cc1ccccc1)c1nc(-c2ccccc2Cl)c(Cl)s1 [Compound 21, (R)-3-benzyl-4-((5-chloro-4-(2-chlorophenyl)thiazol-2-yl)(methyl)amino)-4-oxobutanoic acid]
The EC50 of the first is 3.5-fold higher: 897 nM for the first, 260 nM for the second.

First: Cc1ccc(CC(CC(=O)O)C(=O)N(C)c2nc(-c3ccccc3Cl)cs2)cc1 (stereo not drawn) [Compound 110, 4-((4-(2-chlorophenyl)thiazol-2-yl)(methyl)amino)-3-(4-methylbenzyl)-4-oxobutanoic acid]
Second: CC(C)C[C@H](CC(=O)O)C(=O)N(C)c1nc(-c2ccccc2Cl)cs1 [Compound 90, (R)-3-((4-(2-chlorophenyl)thiazol-2-yl)(methyl)carbamoyl)-5-methylhexanoic acid]
The EC50 of the first is 5.1-fold higher: 452 nM for the first, 88 nM for the second. The second is the more potent here.

First: Cc1ccc(-c2csc(NC(=O)[C@@H](CC(=O)O)Cc3ccccc3)n2)o1 [Compound 202, (R)-3-benzyl-4-((4-(5-methylfuran-2-yl)thiazol-2-yl)amino)-4-oxobutanoic acid]
Second: O=C(O)C[C@@H](Cc1ccccc1)C(=O)Nc1nc(-c2cccc(Cl)c2)cs1 [Compound 12, (R)-3-benzyl-4-(4-(3-chlorophenyl)thiazol-2-ylamino)-4-oxobutanoic acid]
The EC50 of the first is 3.6-fold higher: 1510 nM for the first, 424 nM for the second.

`O=C(Nc1nc(-c2ccccc2Cl)cs1)[C@H]1CC=CC[C@H]1C(=O)O` (relative stereo) [Compound 98, cis-6-(4-(2-chlorophenyl)thiazol-2-ylcarbamoyl)cyclohex-3-enecarboxylic acid] and `O=C(O)C1CC=CCC1C(=O)Nc1nc(-c2ccccc2Cl)cs1` (stereo not drawn) [Compound 1, 6-(4-(2-chlorophenyl)thiazol-2-ylcarbamoyl)cyclohex-3-enecarboxylic acid] are within 1.5-fold of each other in EC50: 113 nM for the first, 109 nM for the second.

`O=C(O)C[C@@H](Cc1ccc(F)cc1)C(=O)Nc1nc(-c2ccccc2Cl)cs1` [Compound 17, (R)-4-(4-(2-chlorophenyl)thiazol-2-ylamino)-3-(4-fluorobenzyl)-4-oxobutanoic acid] and `O=C(O)C[C@@H](Cc1ccccc1)C(=O)Nc1nc(-c2ccc(Cl)cc2Cl)cs1` [Compound 3, (R)-3-benzyl-4-(4-(2,4-dichlorophenyl)thiazol-2-ylamino)-4-oxobutanoic acid] are within 1.5-fold of each other in EC50: 643 nM for the first, 653 nM for the second.

`O=C(O)/C=C\C(=O)Nc1nc(-c2ccccc2Cl)cs1` [Compound 10, (Z)-4-(4-(2-chlorophenyl)thiazol-2-ylamino)-4-oxobut-2-enoic acid] and `CCCC[C@H](CC(=O)O)C(=O)Nc1nc(-c2ccccc2Cl)cs1` [Compound 16, (R)-3-(4-(2-chlorophenyl)thiazol-2-ylcarbamoyl)heptanoic acid] are within 1.5-fold of each other in EC50: 405 nM for the first, 389 nM for the second.

`O=C(O)C[C@@H](Cc1ccccc1)C(=O)Nc1ccc(-c2ccccc2Cl)cn1` [Compound 15, (R)-3-benzyl-4-(5-(2-chlorophenyl)pyridin-2-ylamino)-4-oxobutanoic acid] and `CC(C)C[C@H](CC(=O)O)C(=O)Nc1nc(-c2ccccc2Cl)cs1` [Compound 19, (R)-3-(4-(2-chlorophenyl)thiazol-2-ylcarbamoyl)-5-methylhexanoic acid] are within 1.5-fold of each other in EC50: 426 nM for the first, 322 nM for the second.
